Data on 12 compounds can be found in ChEMBL document CHEMBL4477270, “Design, synthesis, and protein methyltransferase activity of a unique set of constrained amine containing compounds” (Bioorg Med Chem Lett, 2016).

Assay [1] deals with Histone-lysine N-methyltransferase KMT5C (Homo sapiens) (UniProt Q86Y97). The assay can be described thus: Inhibition of SUV420H2 (unknown origin) using biotin-labeled histone substrate assessed as residual activity at 50 uM in presence of [3H-Me]SAM by scintillation proximity assay relative to control. (SPA uses beads or plates that emit light when radiolabelled molecules are held near them.)

Assay [2] has as its target T1, Histone-lysine N-methyltransferase SMYD3 (Homo sapiens) (UniProt Q9H7B4).
T1 sequence (whole entry): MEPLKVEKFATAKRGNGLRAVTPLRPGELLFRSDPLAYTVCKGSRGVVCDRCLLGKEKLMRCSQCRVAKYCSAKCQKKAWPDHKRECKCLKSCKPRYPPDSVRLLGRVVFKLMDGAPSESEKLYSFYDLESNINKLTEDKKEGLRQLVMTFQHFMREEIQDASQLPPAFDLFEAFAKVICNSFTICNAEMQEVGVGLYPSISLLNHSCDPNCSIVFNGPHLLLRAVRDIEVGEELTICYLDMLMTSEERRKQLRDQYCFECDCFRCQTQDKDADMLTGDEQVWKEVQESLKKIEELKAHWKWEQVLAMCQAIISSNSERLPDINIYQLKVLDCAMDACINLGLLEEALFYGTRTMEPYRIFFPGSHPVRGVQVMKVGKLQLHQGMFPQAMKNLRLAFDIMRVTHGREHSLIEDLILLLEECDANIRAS
The assay is described as follows: Inhibition of SMYD3 (unknown origin) using biotin-labeled histone substrate assessed as residual activity at 50 uM in presence of [3H-Me]SAM by scintillation proximity assay relative to control.

For assay [3], the target named is Protein N-lysine methyltransferase METTL21A (Homo sapiens) (UniProt Q8WXB1). The assay is described as follows: Inhibition of METTL21A (unknown origin) using biotin-labeled histone substrate assessed as residual activity at 50 uM in presence of [3H-Me]SAM by scintillation proximity assay relative to control.
The target of assay [4] is Histone-lysine N-methyltransferase, H3 lysine-79 specific (Homo sapiens) (UniProt Q8TEK3). The assay is described as follows: Inhibition of DOT1L (unknown origin) using biotin-labeled histone substrate assessed as residual activity at 50 uM in presence of [3H-Me]SAM by scintillation proximity assay relative to control.
Assay [5] has as its target Histone-lysine N-methyltransferase, H3 lysine-36 specific (Homo sapiens) (UniProt Q96L73). The assay can be described thus: Inhibition of NSD1 (unknown origin) using biotin-labeled histone substrate assessed as residual activity at 50 uM in presence of [3H-Me]SAM by scintillation proximity assay relative to control.
The target of assay [6] is Protein N-lysine methyltransferase METTL21D (Homo sapiens) (UniProt Q9H867). The assay is described as follows: Inhibition of METTL21D (unknown origin) using biotin-labeled histone substrate assessed as residual activity at 50 uM in presence of [3H-Me]SAM by scintillation proximity assay relative to control.
Assay [7] deals with Histone-lysine N-methyltransferase SETDB1 (Homo sapiens) (UniProt Q15047). The assay is described as follows: Inhibition of SETDB1 (unknown origin) using biotin-labeled histone substrate assessed as residual activity at 50 uM in presence of [3H-Me]SAM by scintillation proximity assay relative to control.
In assay [8] the target is Histone-lysine N-methyltransferase 2C (Homo sapiens) (UniProt Q8NEZ4). The assay is described as follows: Inhibition of MLL3 (unknown origin) using biotin-labeled histone substrate assessed as residual activity at 50 uM in presence of [3H-Me]SAM by scintillation proximity assay relative to control.
For assay [9], the target named is T2, Histone-lysine N-methyltransferase NSD3 (Homo sapiens) (UniProt Q9BZ95).
T2 sequence (whole entry): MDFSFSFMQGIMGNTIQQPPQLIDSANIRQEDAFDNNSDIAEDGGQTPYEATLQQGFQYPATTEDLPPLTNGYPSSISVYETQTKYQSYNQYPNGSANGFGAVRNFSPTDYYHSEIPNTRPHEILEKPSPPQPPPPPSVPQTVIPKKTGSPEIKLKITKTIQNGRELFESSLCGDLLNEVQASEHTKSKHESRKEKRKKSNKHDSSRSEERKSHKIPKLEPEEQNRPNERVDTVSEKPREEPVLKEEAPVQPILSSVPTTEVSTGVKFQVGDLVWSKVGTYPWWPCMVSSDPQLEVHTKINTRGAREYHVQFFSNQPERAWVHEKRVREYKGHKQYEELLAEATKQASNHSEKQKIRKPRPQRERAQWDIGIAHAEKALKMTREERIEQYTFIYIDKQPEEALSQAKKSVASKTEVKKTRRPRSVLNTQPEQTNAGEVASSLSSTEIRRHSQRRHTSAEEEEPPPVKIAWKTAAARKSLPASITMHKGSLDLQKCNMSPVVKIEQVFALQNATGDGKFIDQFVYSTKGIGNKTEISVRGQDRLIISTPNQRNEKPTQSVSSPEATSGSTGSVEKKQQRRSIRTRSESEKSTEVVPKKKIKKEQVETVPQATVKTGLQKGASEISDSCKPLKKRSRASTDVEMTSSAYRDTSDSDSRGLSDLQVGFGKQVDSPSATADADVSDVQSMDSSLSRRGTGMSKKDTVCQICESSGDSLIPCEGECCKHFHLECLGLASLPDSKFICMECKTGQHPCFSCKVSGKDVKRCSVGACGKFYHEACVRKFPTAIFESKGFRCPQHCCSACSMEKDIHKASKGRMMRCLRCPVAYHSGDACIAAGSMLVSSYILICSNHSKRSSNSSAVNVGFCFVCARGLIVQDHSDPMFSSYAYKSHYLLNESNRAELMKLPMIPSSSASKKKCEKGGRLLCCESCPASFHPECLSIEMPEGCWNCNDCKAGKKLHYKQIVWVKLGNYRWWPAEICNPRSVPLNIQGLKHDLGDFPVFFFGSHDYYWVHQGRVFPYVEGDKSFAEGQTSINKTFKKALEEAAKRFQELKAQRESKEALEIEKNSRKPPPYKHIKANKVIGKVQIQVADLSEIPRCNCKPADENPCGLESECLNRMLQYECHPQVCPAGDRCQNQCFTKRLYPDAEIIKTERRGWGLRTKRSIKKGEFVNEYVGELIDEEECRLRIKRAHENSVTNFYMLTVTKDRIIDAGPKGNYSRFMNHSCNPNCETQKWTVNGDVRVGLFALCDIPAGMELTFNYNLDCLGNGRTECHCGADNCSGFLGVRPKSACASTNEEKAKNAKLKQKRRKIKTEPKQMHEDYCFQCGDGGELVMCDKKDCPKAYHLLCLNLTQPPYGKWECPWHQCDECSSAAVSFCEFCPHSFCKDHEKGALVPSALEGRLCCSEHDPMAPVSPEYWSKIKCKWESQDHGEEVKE
The assay can be described thus: Inhibition of NSD3 (unknown origin) using biotin-labeled histone substrate assessed as residual activity at 50 uM in presence of [3H-Me]SAM by scintillation proximity assay relative to control.

The target in assay [10] is Histone-lysine N-methyltransferase SETD2 (Homo sapiens) (UniProt Q9BYW2). The assay is described as follows: Inhibition of N-terminal His6-tagged human SETD2 (1347 to 1711 residues) expressed in Escherichia coli Rosseta-2(DE3) cells assessed as residual activity at 50 uM using biotinylated-histone H3 (20 to 50 residues) as substrate in presence of [3H-Me]SAM by scintillation proximity assay relative to control.

Sequence of Protein N-lysine methyltransferase METTL21D (Homo sapiens) (Q9H867 whole entry): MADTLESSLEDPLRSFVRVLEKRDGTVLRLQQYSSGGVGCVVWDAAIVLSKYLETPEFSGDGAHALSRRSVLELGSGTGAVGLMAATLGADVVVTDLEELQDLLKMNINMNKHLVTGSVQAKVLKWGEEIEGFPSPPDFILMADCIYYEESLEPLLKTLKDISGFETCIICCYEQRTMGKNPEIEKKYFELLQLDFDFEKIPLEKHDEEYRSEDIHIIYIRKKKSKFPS
Sequence of Histone-lysine N-methyltransferase KMT5C (Homo sapiens) (Q86Y97 whole entry, looked up): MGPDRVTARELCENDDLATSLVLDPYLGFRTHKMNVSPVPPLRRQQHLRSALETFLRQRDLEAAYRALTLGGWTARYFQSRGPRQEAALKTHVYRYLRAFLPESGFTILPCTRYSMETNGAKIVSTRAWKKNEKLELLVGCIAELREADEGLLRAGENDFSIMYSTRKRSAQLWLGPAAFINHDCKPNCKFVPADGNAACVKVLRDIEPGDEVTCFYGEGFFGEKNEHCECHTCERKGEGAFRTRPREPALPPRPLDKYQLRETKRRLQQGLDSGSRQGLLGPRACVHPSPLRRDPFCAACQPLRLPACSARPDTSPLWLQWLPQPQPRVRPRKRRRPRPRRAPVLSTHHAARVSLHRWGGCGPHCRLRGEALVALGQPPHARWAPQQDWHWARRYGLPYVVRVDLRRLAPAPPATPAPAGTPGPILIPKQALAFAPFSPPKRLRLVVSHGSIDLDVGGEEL
Sequence of Histone-lysine N-methyltransferase, H3 lysine-79 specific (Homo sapiens) (Q8TEK3 whole entry, looked up): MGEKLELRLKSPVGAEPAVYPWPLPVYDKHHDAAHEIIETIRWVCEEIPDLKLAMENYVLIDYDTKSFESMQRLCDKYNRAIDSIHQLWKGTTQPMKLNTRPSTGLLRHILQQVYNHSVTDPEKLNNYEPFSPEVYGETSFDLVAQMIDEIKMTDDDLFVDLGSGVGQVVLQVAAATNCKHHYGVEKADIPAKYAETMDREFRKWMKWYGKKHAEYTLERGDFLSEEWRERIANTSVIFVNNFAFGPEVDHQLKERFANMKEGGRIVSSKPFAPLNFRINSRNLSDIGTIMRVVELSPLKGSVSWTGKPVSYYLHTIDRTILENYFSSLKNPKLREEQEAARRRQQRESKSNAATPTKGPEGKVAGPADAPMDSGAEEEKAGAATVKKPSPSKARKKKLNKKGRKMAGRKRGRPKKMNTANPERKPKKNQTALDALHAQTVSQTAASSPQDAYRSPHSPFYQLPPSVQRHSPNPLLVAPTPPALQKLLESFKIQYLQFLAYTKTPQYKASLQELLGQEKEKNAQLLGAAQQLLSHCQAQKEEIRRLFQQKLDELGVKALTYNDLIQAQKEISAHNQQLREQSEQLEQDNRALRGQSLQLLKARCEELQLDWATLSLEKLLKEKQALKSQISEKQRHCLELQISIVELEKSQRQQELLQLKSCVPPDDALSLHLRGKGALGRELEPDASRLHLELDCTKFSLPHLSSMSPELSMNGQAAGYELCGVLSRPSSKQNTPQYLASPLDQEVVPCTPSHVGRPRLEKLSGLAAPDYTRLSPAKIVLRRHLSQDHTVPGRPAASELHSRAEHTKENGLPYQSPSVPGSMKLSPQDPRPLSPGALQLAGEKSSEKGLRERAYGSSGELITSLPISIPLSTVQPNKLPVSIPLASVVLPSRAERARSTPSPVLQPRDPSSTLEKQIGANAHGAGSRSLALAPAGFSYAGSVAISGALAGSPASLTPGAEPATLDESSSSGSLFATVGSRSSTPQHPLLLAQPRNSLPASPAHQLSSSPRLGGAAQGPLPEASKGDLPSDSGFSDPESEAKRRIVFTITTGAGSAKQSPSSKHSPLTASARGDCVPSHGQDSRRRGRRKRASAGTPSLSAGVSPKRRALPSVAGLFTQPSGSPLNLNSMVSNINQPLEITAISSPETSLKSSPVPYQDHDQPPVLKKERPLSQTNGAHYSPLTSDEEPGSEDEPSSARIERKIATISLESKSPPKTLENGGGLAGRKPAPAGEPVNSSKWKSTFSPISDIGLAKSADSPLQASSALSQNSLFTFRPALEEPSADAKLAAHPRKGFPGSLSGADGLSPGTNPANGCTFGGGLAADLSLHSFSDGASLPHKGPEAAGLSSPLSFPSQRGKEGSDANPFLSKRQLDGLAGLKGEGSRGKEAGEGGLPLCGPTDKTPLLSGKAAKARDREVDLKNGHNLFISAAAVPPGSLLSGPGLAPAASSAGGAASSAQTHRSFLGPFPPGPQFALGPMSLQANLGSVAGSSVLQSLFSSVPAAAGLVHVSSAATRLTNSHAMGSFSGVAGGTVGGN
Sequence of Histone-lysine N-methyltransferase, H3 lysine-36 specific (Homo sapiens) (Q96L73 whole entry): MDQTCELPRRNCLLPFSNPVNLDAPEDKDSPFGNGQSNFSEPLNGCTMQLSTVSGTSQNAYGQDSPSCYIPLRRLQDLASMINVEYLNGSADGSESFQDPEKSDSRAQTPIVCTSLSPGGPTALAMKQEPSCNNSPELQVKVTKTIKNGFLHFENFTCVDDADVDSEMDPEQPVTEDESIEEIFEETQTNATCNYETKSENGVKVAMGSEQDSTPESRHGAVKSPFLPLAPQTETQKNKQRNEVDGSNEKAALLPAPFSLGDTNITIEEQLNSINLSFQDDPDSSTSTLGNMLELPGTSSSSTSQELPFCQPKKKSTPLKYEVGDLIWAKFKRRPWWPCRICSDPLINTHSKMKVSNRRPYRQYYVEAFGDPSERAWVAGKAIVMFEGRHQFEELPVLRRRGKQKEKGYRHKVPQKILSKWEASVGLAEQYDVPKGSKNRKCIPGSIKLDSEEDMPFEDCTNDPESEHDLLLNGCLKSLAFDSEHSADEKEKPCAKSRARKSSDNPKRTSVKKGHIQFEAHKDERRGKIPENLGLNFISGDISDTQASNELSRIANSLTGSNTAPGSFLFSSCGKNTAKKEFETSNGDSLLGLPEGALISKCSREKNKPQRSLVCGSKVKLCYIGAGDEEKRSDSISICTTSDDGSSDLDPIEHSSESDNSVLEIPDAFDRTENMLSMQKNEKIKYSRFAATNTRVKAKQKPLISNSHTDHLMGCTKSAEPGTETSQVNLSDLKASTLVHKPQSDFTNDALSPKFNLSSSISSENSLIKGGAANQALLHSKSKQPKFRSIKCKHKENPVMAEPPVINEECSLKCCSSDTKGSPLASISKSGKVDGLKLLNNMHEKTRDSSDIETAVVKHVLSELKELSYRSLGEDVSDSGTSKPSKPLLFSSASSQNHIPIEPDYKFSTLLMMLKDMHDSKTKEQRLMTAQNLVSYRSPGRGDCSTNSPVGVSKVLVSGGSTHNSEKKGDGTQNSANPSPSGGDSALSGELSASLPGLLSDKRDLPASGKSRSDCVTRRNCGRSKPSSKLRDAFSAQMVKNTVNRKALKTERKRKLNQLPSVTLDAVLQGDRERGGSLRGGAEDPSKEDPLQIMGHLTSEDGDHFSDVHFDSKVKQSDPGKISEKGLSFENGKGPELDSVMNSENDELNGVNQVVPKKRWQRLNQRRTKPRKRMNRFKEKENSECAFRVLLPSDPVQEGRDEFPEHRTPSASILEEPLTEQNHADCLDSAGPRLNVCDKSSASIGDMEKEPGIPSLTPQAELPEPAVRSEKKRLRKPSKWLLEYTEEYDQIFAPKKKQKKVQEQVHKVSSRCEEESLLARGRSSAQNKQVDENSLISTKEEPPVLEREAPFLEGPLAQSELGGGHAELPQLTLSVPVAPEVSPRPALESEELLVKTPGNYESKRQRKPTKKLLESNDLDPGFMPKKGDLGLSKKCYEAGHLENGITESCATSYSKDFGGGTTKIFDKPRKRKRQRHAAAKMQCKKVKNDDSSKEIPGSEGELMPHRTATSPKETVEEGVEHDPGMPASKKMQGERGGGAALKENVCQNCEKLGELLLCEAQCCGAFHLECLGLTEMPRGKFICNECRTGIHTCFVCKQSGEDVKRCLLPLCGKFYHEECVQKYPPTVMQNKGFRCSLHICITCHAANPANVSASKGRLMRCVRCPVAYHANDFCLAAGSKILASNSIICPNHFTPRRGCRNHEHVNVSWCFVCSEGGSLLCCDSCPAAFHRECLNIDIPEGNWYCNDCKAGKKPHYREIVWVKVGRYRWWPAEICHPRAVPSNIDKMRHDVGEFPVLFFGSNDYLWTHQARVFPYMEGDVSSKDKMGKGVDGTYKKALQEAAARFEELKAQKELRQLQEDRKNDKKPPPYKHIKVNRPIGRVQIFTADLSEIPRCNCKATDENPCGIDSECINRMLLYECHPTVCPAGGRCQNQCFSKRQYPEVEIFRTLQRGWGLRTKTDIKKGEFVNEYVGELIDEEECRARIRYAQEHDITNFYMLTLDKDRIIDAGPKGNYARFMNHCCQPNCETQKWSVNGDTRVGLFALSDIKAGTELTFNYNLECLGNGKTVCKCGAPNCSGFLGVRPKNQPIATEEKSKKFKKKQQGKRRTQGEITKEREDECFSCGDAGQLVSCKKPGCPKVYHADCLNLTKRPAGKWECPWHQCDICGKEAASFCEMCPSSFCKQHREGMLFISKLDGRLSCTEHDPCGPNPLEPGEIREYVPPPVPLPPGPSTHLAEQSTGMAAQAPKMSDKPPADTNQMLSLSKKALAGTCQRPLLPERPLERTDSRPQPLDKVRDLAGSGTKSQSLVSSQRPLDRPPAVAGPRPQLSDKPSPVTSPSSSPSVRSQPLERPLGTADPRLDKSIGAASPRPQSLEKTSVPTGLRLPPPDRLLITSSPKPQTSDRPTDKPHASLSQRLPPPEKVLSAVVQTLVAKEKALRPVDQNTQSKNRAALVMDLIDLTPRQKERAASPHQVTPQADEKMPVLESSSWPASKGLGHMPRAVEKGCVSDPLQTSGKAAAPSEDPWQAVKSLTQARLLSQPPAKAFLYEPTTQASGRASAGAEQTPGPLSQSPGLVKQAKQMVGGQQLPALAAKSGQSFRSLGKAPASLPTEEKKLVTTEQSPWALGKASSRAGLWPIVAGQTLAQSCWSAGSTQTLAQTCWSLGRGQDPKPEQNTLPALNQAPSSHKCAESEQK

For `CN1CCCCC12CCCN(C(=O)c1cccc(Br)c1)C2` (stereo not given), the Activity in assay [1] was 99%; in assay [2], 111%; in assay [3], 100%; in assay [4] it was 100%; in assay [5], 82%; in assay [6], 91%. The Activity worked out at 105% in assay [7], 103% in assay [8], 100% in assay [9] and 111% in assay [10].
Consider `O=C(c1cccc(Br)c1)N1CCC2CNCC2C1` (stereo not given), for which the Activity amounted to 104% in assay [1]; 92% in assay [2]; 100% in assay [3]; 94% in assay [4]; 93% in assay [5]; 113% in [6]. In addition, the Activity was found to be 95% in assay [7], 104% in assay [8], 102% in assay [9] and 111% in assay [10].
On to `O=C(c1cccc(Br)c1)N1CCCC2(CCNCC2)C1`, for which the Activity in assay [1] came to 100%; in assay [2], 96%; in assay [3], 97%; in assay [4], 96%; in assay [5] it was 92%; in assay [6], 106%. For the same compound, the Activity was 102% in assay [7], 107% in assay [8], 93% in assay [9] and 107% in [10].
With `O=C(c1cccc(Br)c1)N1C[C@@H]2CC3CCCCN3[C@@H]2C1` (stereo not given in full), the Activity amounted to 100% in [1]; 94% in assay [2]; 91% in [3]; 96% in assay [4]; 95% in assay [5]; 106% in assay [6]. The Activity in assay [7] is 101%; in assay [8], 102%; in assay [9], 94%; in [10], 105%.
With `O=C(c1cccc(Br)c1)N1CCC2(CCNCC2)CC1`, the Activity in assay [1] was found to be 97%; in assay [2] it was 96%; in [3], 98%; in [4], 103%; in assay [5] it was 96%; in assay [6], 101%. The Activity is 110% in [7], 103% in [8], 98% in [9] and 107% in assay [10].
With `CN1CCC2(CCCN(C(=O)c3cccc(Br)c3)C2)C1` (stereo not given), the Activity in [1] was 96%; in assay [2], 95%; in assay [3] it was 105%; in [4], 97%; in [5], 101%; in [6], 98%. The Activity in assay [7] worked out at 94%; in assay [8], 94%; in assay [9], 104%; in [10], 88%.
Take `O=C(c1cccc(Br)c1)N1C[C@@H]2CC3CCCN3[C@@H]2C1` (stereo not given in full): the Activity amounted to 101% in assay [1]; 89% in [2]; 100% in assay [3]; 100% in assay [4]; 106% in [5]; 106% in assay [6]. Moreover, the Activity in [7] came to 96%; in assay [8] it was 97%; in assay [9], 106%; in assay [10], 110%.
For the compound `O=C(c1cccc(Br)c1)N1C[C@H]2CCCN[C@H]2C1`, the Activity in [1] was 98%; in assay [2] it was 103%; in assay [3], 94%; in [4] it was 89%; in [5] it was 107%; in assay [6], 102%. For the same compound, the Activity in assay [7] came out at 111%; in assay [8], 116%; in [9] it was 100%; in assay [10], 119%.
Take `O=C(c1cccc(Br)c1)N1CC[C@@H]2[C@@H](CC3CCCCN32)C1` (stereo not given in full): the Activity in [1] worked out at 89%; in [2] it was 92%; in assay [3], 99%; in [4], 105%; in assay [5] it was 93%; in assay [6] it was 106%. The Activity came out at 97% in assay [7], 97% in assay [8], 98% in [9] and 102% in [10].
As for `CN1CCCC2(CCCN2C(=O)c2cccc(Br)c2)C1` (stereo not given), the Activity stood at 109% in assay [1]; 98% in [2]; 100% in assay [3]; 107% in [4]; 101% in assay [5]; 104% in [6]. Further, the Activity in [7] was determined as 109%; in assay [8], 97%; in assay [9], 102%; in assay [10], 109%.
Regarding `CN1CC[C@H]2CN(C(=O)c3cccc(Br)c3)C[C@H]21`, the Activity in assay [1] came out at 100%; in [2], 103%; in assay [3], 89%; in assay [4], 91%; in assay [5], 96%; in [6], 105%. The Activity in assay [7] came to 102%; in [8], 105%; in assay [9], 92%; in assay [10], 108%.
For the compound `CN1CCC[C@@H]2CN(C(=O)c3cccc(Br)c3)C[C@@H]21`, the Activity in [1] turned out to be 100%; in [2] it was 112%; in assay [3], 108%; in [4], 97%; in assay [5], 94%; in [6], 100%. The Activity stood at 101% in [7], 106% in assay [8], 98% in assay [9] and 104% in assay [10].
